The values that follow are results of earlier work, collected in patent US8529952B2 (Ethypharm, priority 1999, dated 2013).

As to `CC(C)(Oc1ccc(C(=O)c2ccc(Cl)cc2)cc1)C(=O)O` [fenofibric acid], the “mean concentration in the plasma” value (dose of 300 mg of fenofibrate per day) is reported as ~15 micrograms/ml. The “time to maximum concentration in the plasma after ingestion” value (on average) is “five”. Also, the “half-life for elimination from the plasma” value (plasma) is ~20 h.
